Measurements from US20120213837A1, “COMPOSITIONS AND METHODS FOR BIOACTIVE COATINGS TO IMPROVE ALLOGRAFT INCORPORATION” (priority 2009, published 2012).
Entries after “also recorded” stand apart in the source; their conditions may differ.

Columns and labels:
arterioles = details: sustained release from 50:50 PLAGA films, 1:200 wt/wt; cited from earlier work
[1] = test system: host-bone-allograft integrated structure (excised tibias); test: Post-operative mechanical properties, compression in Instron 4511; assay type: in vivo, Sprague Dawley rats; details: 6 weeks post-op, compression 1 mm/min, vs U and C groups
Method: All animal surgeries were performed according to an approved protocol from the UVA Animal Care and Use Committee. Briefly, adult male Sprague Dawley rats (˜400 g) were randomly assigned to three different experimental groups: uncoated allograft (U), coated 1:12 PLAGA (C), and coated 1:12 PLAGA loaded with 1:200 FTY720 (C/L). Animals were anesthetized with isoflurane gas. Following anesthetization, the dorsal skin was sterilized with betadine and 70% ethanol. A small incision was made longitudinally over the midshaft of the tibia. Subperiosteal dissection was performed once the subcutaneous tissue was dissected over the anterior aspect of the tibia. A Dremel rotary tool with a Diamond Wheel accessory was used to make an 8 mm defect slightly distal to the tibial tubercle and the 8 mm allograft segment was inserted into the defect. A stab incision was made just medial to the patellar tendon and a 19.5 gauge needle was inserted into the intramedullary canal, through the allograft, into the distal intramedullary canal to resistance, and tamped flush to the bone. […]
A leading cause of allograft failure or post-operative complications includes mechanical instability at the bone-allograft interface. […] To determine the elastic modulus, the slope was calculated between the values of 0.07 to 0.08 strain, since this was the interval in which the elastic region existed in all the graphs.

[2] = in vivo; cited from earlier work
[3] = test system: SMA-positive lumens (mural cell recruitment); test: Smooth muscle alpha-actin (SMA) immunostaining of tibial defect sections; assay type: in vivo, Sprague Dawley rats; details: 6 weeks, interface/allograft regions, vs U and C groups
Method: (§1) All animal surgeries were performed according to an approved protocol from the UVA Animal Care and Use Committee. Briefly, adult male Sprague Dawley rats (˜400 g) were randomly assigned to three different experimental groups: uncoated allograft (U), coated 1:12 PLAGA (C), and coated 1:12 PLAGA loaded with 1:200 FTY720 (C/L). Animals were anesthetized with isoflurane gas. Following anesthetization, the dorsal skin was sterilized with betadine and 70% ethanol. A small incision was made longitudinally over the midshaft of the tibia. Subperiosteal dissection was performed once the subcutaneous tissue was dissected over the anterior aspect of the tibia. […]
(§2) For CD45 staining to visualize leukocyte recruitment, four 7 μm-thick histological sections per sample (cryo-embedded) were blocked 3×10 minutes in PBS/saponin/BSA and immunolabeled with CD45 (BD Pharmingen) diluted 1:50 in PBS/saponin/BSA. […] To quantify changes in vascular remodeling (particularly recruitment of mural cells) in response to FTY720, SMA-positive cells that formed an obvious lumen were quantified in each tissue section. Total tissue area was measured in ImageJ, and the FTY720-mediated response was represented as a fraction of SMA-positive lumens per total tissue area.

[4] = test system: allograft-host bone interface; test: H&E and Masson's trichrome staining of tibial defects; assay type: in vivo, Sprague Dawley rats; details: 6 weeks healing, vs U and C groups
Method: as §1
as §2, with “area. […]” for “area.”

CD45+ leukocytes = test: CD45 immunostaining of tibial defect sections; assay type: in vivo, Sprague Dawley rats; details: 6 weeks, qualitative images
Method: as §1, §2

[5] = test system: critical size calvarial bone defects; details: 3D PLAGA scaffolds delivering FTY720; cited from earlier work
[6] = In vitro release of 33P-labelled S1P from PLAGA-coated allografts; encapsulation efficiency; assay type: physicochemical
Method: Allograft samples were coated similarly to the above protocol with radio-labeled sphingosine-1-phosphate (S1P, Cayman Chemical, Ann Arbor Mich.) to measure drug release over a 14-day period. Specifically, 2.92 mg of S1P was resolubilized in MeCl to a final concentration of 2 mg/mL by frequent heating and vortexing. Using a conversion factor of 2.2×10^6 cpm/μCi and 1 μCi/μL, 6.8 μL of Phosphorus-33 (^33P) (Perkin Elmer, Inc., Waltham, Mass.) was added to the S1P solution. Next, 583 mg of 50:50 PLAGA was added to the S1P-^33P solution to achieve a 1:12 (wt./vol.) polymer-solvent ratio. The final solution had 2.92 mg of S1P, 6.8 μL of ^33P, and 583 mg of 50:50 PLAGA mixed in 7 mL of MeCl. The coated allografts were then placed into a glass scintillation vial containing 50 μL of simulated body fluid (SBF) with 4% fatty acid free (FAF) BSA. Following 24 hours incubation, the allografts were removed from the vials and the remaining 4% FAF-BSA SBF was mixed with 5 mL of EcoScintA biodegradable scintillation solution for quantifying drug release using the Beckman Coulter liquid scintillation counter. Allografts were then placed into a new glass vial containing fresh 4% FAF-BSA SBF. This cycle was repeated for a 14-day period to achieve cumulative measurements. Encapsulation efficiency (maximum amount of S1P that can be released) was quantified by placing allografts in MeCl to completely dissolve the drug-containing polymer solution.
To determine total amount of drug loaded into allograft implants and the kinetics of drug release, in vitro experiments were conducted utilizing allografts loaded with S1P-^33P (FIG. 3). Complete degradation of PLAGA occurs between 6-8 weeks. However, substantial S1P release was expected to occur earlier, given the bulk degradation profile of PLAGA. We found approximately 0.64 mg of the original 1 mg of S1P was actually loaded within the polymer-coated allograft (64% loading efficiency). After 14 days incubation, 0.57 mg of S1P was detected in the simulated body fluid (SBF). […]

[7] = in the absence of a carrier protein; cited from earlier work
[8] = test system: smooth muscle proliferation and migration; details: daily injections; cited from earlier work

In the case of `CCCCCCCCc1ccc(CCC(N)(CO)CO)cc1` [FTY720, Fingolimod], the “microvascular remodeling (arterioles)” value (arterioles) is given as “promotes formation of new arterioles and structural enlargement of existing arterioles”, the elastic modulus [1] is given as “statistically significant increases” and the ultimate compressive strength [1] is given as “statistically significant increases”. For the same compound, the half-life [2] was “approximately 7 days”, the “number of blood vessels stained with smooth muscle alpha-actin” value [3] was “significantly increased; also recorded: enhanced the number of smooth-muscle-invested vessels” and the “allograft-host bone integration, histology” value [4] was “superior collagen alignment, osseous tissue generation along the outer edge of the allograft tissue, better preservation of inner cancellous porous regions, and preservation of allograft-tibial alignment”. The “number of CD45+ leukocytes within allograft-host bone interface” value (CD45+ leukocytes) was “reductions in the number of leukocytes; also recorded: significant reduction” and the “osseous tissue ingrowth and proportion of mature smooth muscle cell-invested microvessels” value [5] was “significantly increases”.
For `CCCCCCCCCCCCC/C=C/[C@@H](O)[C@@H](N)COP(=O)(O)O` [S1P, sphingosine-1-phosphate], the loading efficiency ([6]; 50:50 PLAGA 1:12 coated allograft) was 64%, the release profile ([6]; 50:50 PLAGA coated allograft, SBF) was “initial burst release of drug was observed during the first five days” and the “amount of S1P loaded within the polymer-coated allograft” value ([6]; of the original 1 mg of S1P, 50:50 PLAGA 1:12 coating) was “approximately 0.64 mg”. The half-life in blood [2] was “less than 1 hour” and the “solubility in aqueous solutions” value [7] was “insoluble”.
In the case of `CCCCCCCCc1cccc(NC(=O)[C@H](N)CCP(=O)(O)O)c1` [VPC44116], the “smooth muscle proliferation and migration” value [8] is listed as “significantly decreased”.
